{"source": "patent US4738979A", "about": "“α2 -blocking derivatives of imidazole” (G. D. Searle & Co., priority 1985, dated 1988)", "system": "clonidine-induced depression of locomotor activity and rearing activity", "test": "clonidine-induced depression of locomotor activity, open field test in mice", "type": "in vivo", "settings": "for minimal effective dose: Mus musculus, 2 hours prior to clonidine 0.3 mg/kg p.o.", "excerpt": "The third in vivo study evaluation activity of the compounds of the invention on clonidine induced depression of locomotor activity. The previously-discussed study involving clonidine related to its α2 agonist effects on the brain's regulation of the cardiovascular system. The present study involved clonidine α2 agonist effects on central control of locomotor activity. Clonidine inhibits locomotor activity and rearing activity in the mouse. In this \"open field\" test, mice are pretreated with the compounds of the present invention at doses of 1 to 10 mg/kg p.o. […] Each compound was evaluated for its ability to antagonize the effect of clonidine. […] Compound No. 1 antagonizes clonidine-induced depression of locomotor activity and rearing activity from 1 mg/kg p.o. and from 3 mg/kg p.o., respectively. The effects of chronic administration of compound No. 1 were also evaluated in this test. In this study, groups of 5-6 mice were treated with compound No. 1 (3 mg/kg p.o.) either twice daily for 14 days (chronic) or with one single dose (acute).", "note": "“Also recorded” adds a separate entry of the source. Read-outs that look alike come from different tables or passages of the source."}
{"compound": "c1ccc(C(Cc2c[nH]cn2)c2ccccc2)cc1", "note": "[Compound 1, 4(5)-(2,2-diphenylethyl)-imidazole]", "values": [{"measurement": "activity in the open field test after chronic administration (in words)", "setting": "3 mg/kg p.o. twice daily 14 days, clonidine 0.15 mg/kg i.p.", "result": "at the same level as after acute administration; also recorded: disappeared 24 hours after withdrawal of the drug"}, {"measurement": "minimal effective dose", "setting": "mice, read-out: active dose antagonizing clonidine-induced depression of locomotor activity", "result": "≥ 1", "unit": "mg/kg"}, {"measurement": "minimal effective dose", "setting": "mice, read-out: active dose antagonizing clonidine-induced depression of rearing activity", "result": "≥ 3", "unit": "mg/kg"}, {"measurement": "% Inhibition of the Effect of Clonidine on Locomotor Activity in Mice", "setting": "acute, 3 mg/kg p.o., 1 h after last administration, clonidine 0.15 mg/kg i.p.", "result": 52, "unit": "%"}, {"measurement": "% Inhibition of the Effect of Clonidine on Locomotor Activity in Mice", "setting": "chronic, 3 mg/kg p.o. twice daily 14 days, 1 h after last administration, clonidine 0.15 mg/kg i.p.", "result": 59, "unit": "%"}, {"measurement": "% Inhibition of the Effect of Clonidine on Locomotor Activity in Mice", "setting": "chronic, 3 mg/kg p.o. twice daily 14 days, 24 h after last administration, clonidine 0.15 mg/kg i.p.", "result": 3, "unit": "%"}, {"measurement": "% Inhibition of the Effect of Clonidine on Locomotor Activity in Mice", "setting": "chronic, 3 mg/kg p.o. twice daily 14 days, 72 h after last administration, clonidine 0.15 mg/kg i.p.", "result": 5, "unit": "%"}, {"measurement": "accumulation of the compound after chronic administration (in words)", "setting": "inferred from open field activity after withdrawal, 14 days twice daily", "result": "Accumulation of the compound does not appear to occur"}, {"measurement": "activity in the open field test (in words)", "setting": "mice, 1 to 10 mg/kg p.o., clonidine 0.3 mg/kg p.o.", "result": "particularly active"}]}
